Reference: patent publication US20260191793A1, “HBV SPECIFIC EXOSOMES AND USES THEREOF” (priority 2022, published 2026)

Test system: HBV DNA
Experiment: Sanger sequencing of HBV DNA fragments from treated HepDE19 cells
Format: cell-based, Hepatitis B virus (HBV)
Details: compared with gRNAc
Experimental: Following treatment with gRNA5/Cas9+gRNA9/Cas9, or gRNAc/Cas9 RNPs, genomic DNA was isolated from HepDE19 cells using the PureLink Genomic DNA Mini Kit (Cat #K182001, Invitrogen). DNA fragments containing the gRNA target sequences were amplified by qPCR using primers flanking the cleavage sites. The PCR products were confirmed using 1% agarose gel electrophoresis and purified using a QIAquick gel extraction kit (Cat #28704, Qiagen). Sequencing of the extracted DNA fragments was performed by GENEWIZ (Chelmsford, MA) using Sanger's sequencing method. The PCR primers used for the detection of gRNA5 and gRNA9 flanking regions are described above. The sequencing readouts were aligned with the gRNAc, which was compared to the HBV sequence in the database (ayw strain, Genbank accession number: NC_003977.2). The Chromas's software (Technelysium DNA sequencing software) was used to read the nucleotide peaks, and the alignment of two or more sequences was performed using the BLAST tool from NCBI-BLAST to compare the nucleotide sequences.
Following a successful CRISPR/Cas9 cleavage, DNA damage repair pathways are initiated, and nucleotide mutagenesis occurs in the targeted genome, introducing substitution mutations. […]

Row | Sequence | mutations at gRNA-targeted sites of HBV DNA (Sanger sequencing)
1 | GGTCTCCATGCGACGTGCAGNGG [gRNA9] | specific DNA indel mutations
2 | GTTATCGCTGGATGTGTCTGNGG (guide GUUAUCGCUGGAUGUGUCUGNGG; complexed with Cas9 protein, chemistry not fully specified) [gRNA5, tested as synthetic gRNA/Cas9 RNP] | specific DNA indel mutations
